Measurements: patent US20240293579A1, “Composition Comprising Trim31 and Rhbdf2 for Treatment of NAFLD/NASH” (CHONGQING MEIPULAN TECHNOLOGY CO., LTD, priority 2021, published 2024)
Where two headings read alike, the source gives them in different places.

How the values were obtained:
TRIM31 mRNA = TRIM31 mRNA expression by RT-qPCR in PA/OA-induced L02 cells; type: cell-based, human; conditions: for fold induction at 100 µM: Homo sapiens
Protocol: Palmitic acid/oleic acid (PA/OA) was used to induce the decrease of TRIM31 mRNA expression in human hepatocyte L02 cells. The cells were divided into control group and drug group. The drug group was treated with a concentration of 100 μmol/L compound, and the expression level of TRIM31 mRNA was detected by RT-qPCR. The expression level of TRIM31 mRNA in the drug group divided by that in the control group (Qdrug/Qctrl) was used to evaluate the ability of the compounds to promote TRIM31 expression. […]

[1] = test system: Mice with a NASH phenotype (THTG-HFHF); experiment: Carminic acid in mice with a NASH phenotype (THTG-HFHF), liver mRNA and protein levels; type: in vivo; conditions: 16 weeks
Description: (§1) To further investigate the protective effects of Trim31 on liver steatosis, a nonalcoholic steatohepatitis (NASH) mice model was established in accordance with previous reports (Xu Min-Xuan,Tan Jun, et al., Journal of Hazardous Materials, 2020, 400: 123158). The THTG mice were then fed with HFHF diet (14% protein, 42% fat, 44% carbohydrates, 0.2% cholesterol and with a total of 42 g/L of carbohydreate mixed in drinking water at a ratio of 55% fructose and 45% sucrose by weight) for 16 weeks to produce phenotype of NASH. Also, the NTG mice used in this design as controls and were synchronously allowed to ad libitum access to this diet for 16 weeks.
(§2) Based on the effective protective effect of Trim31 in NAFLD, we accordingly investigated the therapeutic feasibility and effect of targeting the Trim31-Rhbdf2-MAP3K7 pathway in the development and progression of NASH. The THTG mice were then fed with an HFHF diet containing 14% protein, 42% fat, 44% carbohydrates, and 0.2% cholesterol and with a total of 42 g/L of carbohydrate mixed in drinking water at a ratio of 55% fructose and 45% sucrose by weight, for 16 weeks to generate mice with a NASH phenotype (THTG-HFHF).
Mice with a NASH phenotype (THTG-HFHF) were constructed according to the protocol described in Example 10. The control group (Ctrl), NASH-THTG group (Fru), low dose group (CAL, 0.5% CA+Fru), high dose group (CAH, 1% CA+Fru) were set up. The drug group was treated with 0.5% and 1% carminic acid (CA) by gavage.

[2] = test system: Mice with a NASH phenotype (THTG-HFHF); experiment: Fisetin in mice with a NASH phenotype (THTG-HFHF), liver mRNA levels; type: in vivo; conditions: 16 weeks
Description: as §1, §2
Mice with a NASH phenotype (THTG-HFHF) were constructed according to the protocol described in Example 10. A control group (Ctrl), a NASH group (THTG), and three drug groups (FIS) were set up. The three drug groups (FIS) were treated with 20 mg/kg, 40 mg/kg and 80 mg/kg fisetin (FIS) by gavage.

[3] = test system: Mice with a NASH phenotype (THTG-HFHF); experiment: Betacyanin in mice with a NASH phenotype (THTG-HFHF), liver protein expression; type: in vivo; conditions: 0.2 g/kg mixed with feed, 16 weeks
Description: as §1, §2
Mice with a NASH phenotype (THTG-HFHF) were constructed according to the protocol described in Example 10. A control group (Ctrl), a NASH group (THTG), and a drug group (BCN) were set up. The drug group was fed with 0.2 g/kg betacyanin (BCN) mixed with feed.

[4] = 100 μmol/L compound, PA/OA-induced L02 cells, RT-qPCR, read-out: Qdrug/Qctrl (TRIM31 mRNA expression level, drug group divided by control group)
[5] = 100 μmol/L compound, PA/OA-induced L02 cells, RT-qPCR
[6] = L02, read-out: Qdrug/Qctrl (TRIM31 mRNA expression level, drug group divided by control group)

Cc1c(C(=O)O)c(O)cc2c1C(=O)c1c(O)c([C@@H]3O[C@H](CO)[C@@H](O)[C@H](O)[C@H]3O)c(O)c(O)c1C2=O [Carminic acid]
fold induction at 100 µM (TRIM31 mRNA; [4]): 2.78 | Collagen I mRNA level in liver ([1]; 0.5% and 1% CA by gavage): significantly decreased | Keap1 protein in liver ([1]; 0.5% and 1% CA by gavage): significantly decreased | MMP-9 mRNA level in liver ([1]; 0.5% and 1% CA by gavage): significantly decreased | TGF-β1 mRNA level in liver ([1]; 0.5% and 1% CA by gavage): significantly decreased | TRIM31 protein expression in liver ([1]; 0.5% and 1% CA by gavage): significantly increased | α-SMA mRNA level in liver ([1]; 0.5% and 1% CA by gavage): significantly decreased | liver fibrosis and inflammation ([1]; gavage): effectively alleviated | these indexes (fibrosis genes, Keap1, TRIM31) versus control group ([1]; high dose group (CAH, 1% CA)): close to the normal level of the control group

O=c1c(O)c(-c2ccc(O)c(O)c2)oc2cc(O)ccc12 [Fisetin]
fold induction at 100 µM (TRIM31 mRNA; [4]): 3.27 | Collagen I mRNA level in liver ([2]; 20, 40 and 80 mg/kg by gavage): significantly decreased | Fibronectin mRNA level in liver ([2]; 20, 40 and 80 mg/kg by gavage): significantly decreased | TGF-β1 mRNA level in liver ([2]; 20, 40 and 80 mg/kg by gavage): significantly decreased | TRIM31 mRNA level in liver ([2]; 20, 40 and 80 mg/kg by gavage): significantly increased | α-SMA mRNA level in liver ([2]; 20, 40 and 80 mg/kg by gavage): significantly decreased | liver fibrosis and inflammation ([2]; gavage): significantly alleviated | these indexes (fibrosis gene and TRIM31 mRNA levels) versus control group ([2]; high dose group (80 mg/kg)): close to the normal level of the control group

O[C@H]1CCN2Cc3ccccc3N=C12 [Peganine]
Qdrug/Qctrl (TRIM31 mRNA expression level, drug group divided by control group) (TRIM31 mRNA; [5]): 1.34 fold

C[C@H]1CC[C@@H]2N(C1)C[C@H]1[C@@H]3C[C@H]4[C@@H](C[C@H](O)[C@H]5C[C@@H](O)CC[C@@]54C)[C@@H]3CC[C@@H]1[C@]2(C)O [Peimine]
Qdrug/Qctrl (TRIM31 mRNA expression level, drug group divided by control group) (TRIM31 mRNA; [5]): 1.31 fold

Oc1ccc(-c2[o+]c3cc(O)cc(O)c3cc2O)cc1 [Pelargonidin]
fold induction at 100 µM (TRIM31 mRNA; [4]): 2.78

CC(C)(S)[C@@H](N)C(=O)O [Penicillamine, reference compound]
fold induction at 100 µM (TRIM31 mRNA; [6]): 1.72

O=C(/C=C/C=C/c1ccc2c(c1)OCO2)N1CCCCC1 [Piperine]
fold induction at 100 µM (TRIM31 mRNA; [6]): 1.8

Nc1cccc2c1C(=O)N(C1CCC(=O)NC1=O)C2=O (centres unmarked) [Pomalidomide, reference compound]
fold induction at 100 µM (TRIM31 mRNA; [4]): 1.49

O=c1c(-c2ccc(O)cc2)coc2c([C@@H]3O[C@H](CO)[C@@H](O)[C@H](O)[C@H]3O)c(O)ccc12 [Puerarin]
fold induction at 100 µM (TRIM31 mRNA; [4]): 2.72

O=c1c(O)c(-c2ccc(O)c(O)c2)oc2cc(O)cc(O)c12 [Quercetin]
fold induction at 100 µM (TRIM31 mRNA; [4]): 3.38

CNC(=O)c1cc(Oc2ccc(NC(=O)Nc3ccc(Cl)c(C(F)(F)F)c3)c(F)c2)ccn1 [Regorafenib, reference compound]
fold induction at 100 µM (TRIM31 mRNA; [4]): 2.79

Oc1ccc(C=Cc2cc(O)cc(O)c2)cc1 [Resveratrol]
fold induction at 100 µM (TRIM31 mRNA; [6]): 3.66

CC[C@H]1CN2CC[C@]3(C(=O)Nc4ccccc43)[C@@H]2C[C@@H]1/C(=C\OC)C(=O)OC [Rhynchophylline]
fold induction at 100 µM (TRIM31 mRNA; [6]): 1.92

C[C@@H]1O[C@@H](OC[C@H]2O[C@@H](Oc3c(-c4ccc(O)c(O)c4)oc4cc(O)cc(O)c4c3=O)[C@H](O)[C@@H](O)[C@@H]2O)[C@H](O)[C@H](O)[C@H]1O [Rutin]
fold induction at 100 µM (TRIM31 mRNA; [4]): 2.86

O=c1cc(-c2ccc(O)cc2)oc2cc(O)c(O)c(O)c12 [Scutellarein]
fold induction at 100 µM (TRIM31 mRNA; [6]): 3.2

COC(=O)C1=CO[C@@H](C)[C@H]2Cn3ccc4c5ccccc5nc-4c3C[C@H]12 [Serpentine]
Qdrug/Qctrl (TRIM31 mRNA expression level, drug group divided by control group) (TRIM31 mRNA; [5]): 1.33 fold

COc1cc(C2Oc3cc([C@H]4Oc5cc(O)cc(O)c5C(=O)[C@@H]4O)ccc3OC2CO)ccc1O (some centres unmarked) [Silibinin]
fold induction at 100 µM (TRIM31 mRNA; [4]): 3.12

O=C1CCC[C@@H]2[C@H]3CCCN4CCC[C@@H](CN12)[C@@H]34 [Sophocarpidine]
Qdrug/Qctrl (TRIM31 mRNA expression level, drug group divided by control group) (TRIM31 mRNA; [5]): 1.30 fold

CNC(=O)c1cc(Oc2ccc(NC(=O)Nc3ccc(Cl)c(C(F)(F)F)c3)cc2)ccn1 [Sorafenib, reference compound]
fold induction at 100 µM (TRIM31 mRNA; [4]): 2.86

C[C@H](CCC(=O)NCCS(=O)(=O)O)[C@H]1CC[C@H]2[C@@H]3[C@H](O)C[C@@H]4C[C@H](O)CC[C@]4(C)[C@H]3CC[C@]12C [Taurochenodeoxycholic acid]
Qdrug/Qctrl (TRIM31 mRNA expression level, drug group divided by control group) (TRIM31 mRNA; [5]): 2.51 fold

C[C@H](CCC(=O)NCCS(=O)(=O)O)[C@H]1CC[C@H]2[C@@H]3[C@@H](O)C[C@@H]4C[C@H](O)CC[C@]4(C)[C@H]3CC[C@]12C [Tauroursodeoxycholic acid, reference compound]
fold induction at 100 µM (TRIM31 mRNA; [4]): 2.77

COc1cc2c(cc1OC)[C@@H]1Cc3ccc(OC)c(OC)c3CN1CC2 [Tetrahydropalmatine]
fold induction at 100 µM (TRIM31 mRNA; [6]): 1.76

COc1ccc2cc1Oc1ccc(cc1)C[C@H]1c3cc(c(OC)cc3CCN1C)Oc1c(OC)c(OC)cc3c1[C@H](C2)N(C)CC3 [Tetrandrine]
fold induction at 100 µM (TRIM31 mRNA; [4]): 1.56

O=C1CCC(N2C(=O)c3ccccc3C2=O)C(=O)N1 (centres unmarked) [Thalidomide, reference compound]
fold induction at 100 µM (TRIM31 mRNA; [6]): 1.88

COc1cc(-c2cc(=O)c3c(O)cc(O)cc3o2)cc(OC)c1O [Tricin]
fold induction at 100 µM (TRIM31 mRNA; [6]): 2.9

C[C@H](CCC(=O)O)[C@H]1CC[C@H]2[C@@H]3[C@@H](O)C[C@@H]4C[C@H](O)CC[C@]4(C)[C@H]3CC[C@]12C [Ursodesoxycholic acid, reference compound]
fold induction at 100 µM (TRIM31 mRNA; [4]): 2.85

COc1c(O)cc(O)c2c(=O)cc(-c3ccccc3)oc12 [Wogonin]
fold induction at 100 µM (TRIM31 mRNA; [4]): 3.05

O=c1cc(-c2ccc(O)c(O)c2)oc2cc(O[C@@H]3O[C@H](CO)[C@@H](O)[C@H](O)[C@H]3O)cc(O)c12 [luteolin 7-O-β-D-glucoside]
Qdrug/Qctrl (TRIM31 mRNA expression level, drug group divided by control group) (TRIM31 mRNA; [5]): 2.83 fold

Anthocyanidin
Qdrug/Qctrl (TRIM31 mRNA expression level, drug group divided by control group) (TRIM31 mRNA; [5]): 3.68 fold

Betacyanin
Qdrug/Qctrl (TRIM31 mRNA expression level, drug group divided by control group) (TRIM31 mRNA; [5]): 3.14 fold | Collagen I protein expression level in liver [3]: significantly reduced | Keap1 protein expression level in liver [3]: significantly reduced | TGF-β1 protein expression level in liver [3]: significantly reduced | TRIM31 protein expression in liver [3]: increased | liver fibrosis and inflammation [3]: effectively alleviated

Breviscapine
Qdrug/Qctrl (TRIM31 mRNA expression level, drug group divided by control group) (TRIM31 mRNA; [5]): 3.29 fold

Catechin
Qdrug/Qctrl (TRIM31 mRNA expression level, drug group divided by control group) (TRIM31 mRNA; [5]): 3.21 fold

Cynarascoloside C
Qdrug/Qctrl (TRIM31 mRNA expression level, drug group divided by control group) (TRIM31 mRNA; [5]): 2.34 fold

Orixine
Qdrug/Qctrl (TRIM31 mRNA expression level, drug group divided by control group) (TRIM31 mRNA; [5]): 1.69 fold

Proanthocyanidin
Qdrug/Qctrl (TRIM31 mRNA expression level, drug group divided by control group) (TRIM31 mRNA; [5]): 3.12 fold

Punicosides
Qdrug/Qctrl (TRIM31 mRNA expression level, drug group divided by control group) (TRIM31 mRNA; [5]): 2.64 fold
